The values that follow come from patent publication US8748575B2, “Therapeutic peptides” (Combimab, Inc., priority 2010, dated 2014).

Residues, ends and D or L forms follow the SMILES beside them.

One experiment deals with T1, GC-C (Mus musculus, UniProt Q3UWA6).
T1 construct: freshly prepared mouse intestine membranes; from tissue; host or cells: mouse intestine (membrane preparation)
T1 sequence (Q3UWA6 20-1072): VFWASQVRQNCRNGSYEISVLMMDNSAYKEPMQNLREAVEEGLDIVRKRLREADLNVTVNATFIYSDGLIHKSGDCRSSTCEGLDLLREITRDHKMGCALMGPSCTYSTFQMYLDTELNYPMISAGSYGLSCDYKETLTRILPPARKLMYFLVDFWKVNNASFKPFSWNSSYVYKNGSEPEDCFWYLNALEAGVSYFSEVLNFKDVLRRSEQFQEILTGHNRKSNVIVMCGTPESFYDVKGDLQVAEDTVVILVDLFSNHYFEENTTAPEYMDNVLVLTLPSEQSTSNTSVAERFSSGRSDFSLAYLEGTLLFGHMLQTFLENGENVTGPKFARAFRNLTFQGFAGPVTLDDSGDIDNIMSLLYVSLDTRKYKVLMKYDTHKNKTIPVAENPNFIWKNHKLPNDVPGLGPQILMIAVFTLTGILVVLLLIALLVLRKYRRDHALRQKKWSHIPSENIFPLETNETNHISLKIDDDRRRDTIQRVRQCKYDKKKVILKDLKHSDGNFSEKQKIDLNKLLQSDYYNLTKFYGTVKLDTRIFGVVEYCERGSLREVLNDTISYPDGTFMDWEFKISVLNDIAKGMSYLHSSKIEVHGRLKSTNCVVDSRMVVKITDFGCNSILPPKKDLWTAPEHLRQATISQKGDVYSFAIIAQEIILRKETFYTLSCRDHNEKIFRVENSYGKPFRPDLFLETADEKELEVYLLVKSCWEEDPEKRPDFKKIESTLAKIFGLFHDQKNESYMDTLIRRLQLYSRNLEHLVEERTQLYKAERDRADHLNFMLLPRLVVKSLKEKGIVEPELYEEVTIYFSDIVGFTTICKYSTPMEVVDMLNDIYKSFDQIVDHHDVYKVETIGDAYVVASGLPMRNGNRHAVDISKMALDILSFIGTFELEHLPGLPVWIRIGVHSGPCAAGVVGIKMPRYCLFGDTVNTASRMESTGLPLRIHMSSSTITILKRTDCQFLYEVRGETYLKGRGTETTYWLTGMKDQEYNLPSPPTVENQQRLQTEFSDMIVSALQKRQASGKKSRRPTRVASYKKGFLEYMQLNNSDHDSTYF
As to the kind of experiment: Intestinal membrane 125I-STa competitive radioligand binding assay. Also on record: key to I-125 binding assay: 1+ (lowest activity/potency); ++: Results are graded from 1+ (lowest activity/potency) to 5+ (highest activity/potency); +++: Results are graded from 1+ (lowest activity/potency) to 5+ (highest activity/potency); ++++: Results are graded from 1+ (lowest activity/potency) to 5+ (highest activity/potency); +++++: 5+ (highest activity/potency). To be noted: graded activity/potency, mouse intestinal membranes. The protocol:
Intestinal membrane 1-125 labeled radioligand binding assay. The intestinal membrane radioligand binding assay was used to assess whether a novel compound could displace ^125I-STa from GC-C (Crane et al., 1992). Each analog was analyzed for its ability to displace ^125I-STa from GC-C in a competitive binding assay. ^125I-ST Displaced” was determined by co-incubating STa analogs (10 μM) with 50,000 DPM of ^125I-STa (1-18) in the presence of mouse intestinal membranes. The displacement (n=3) for each analog was determined relative to a vehicle control.
Membranes were prepared from freshly harvested mouse intestines by first washing away the blood or feces with ice-cold Dulbecco's PBS. Washed organs were minced with a single-edged razor blade, followed by homogenization on ice in 50 mM Tris, pH 7.6, containing 1 mM EDTA, 1 mM PMSF, 1 mM DTT. Debris was then removed by a 15 minute centrifugation at 3,000×G and 4° C. The supernatant is then passed through successively smaller needles (18 gauge through 25 gauge) and frozen at −70° C. until used as a tissue homogenate. If intended for use as isolated membranes, the above homogenate was centrifuged (100,000×G) at 4° C. for 1 hour while fresh and the pellet was re-suspended in homogenization buffer.
The assay was performed in 96 well filter plates which were pre-incubated overnight with 200 μl of 0.3% polyethylenimine (w/v) and washed three times by aspiration with 300 μl of Wash Buffer (150 mM NaCl, 20 mM Sodium Phosphate pH=7.2, 1 mM EDTA) immediately before use. Into each well of was added 50 μl of 3× Binding buffer (150 mM Tris-HCl pH=7.6, 1.98 mM Cysteamine, 0.3% Bacitracin, 1350 mM NaCl, 3 mM EDTA), 40 μl of double-distilled water, 10 μl of either double-distilled water or cold ligand (50 uM STa (5-18) in double-distilled water), 10 μl of increasing concentrations (125 DPM/ul to 50,000 DPM/ul) of radiolabeled 125I -STa (1-18) and finally 40 μl (approximately 2 mg protein/ml) of freshly prepared mouse intestine membranes. The plates were then incubated with mixing at 37 C for two hr, washed successively with six 200 μl aliquots of Wash Buffer and aspirated to dryness. The filter bottoms of each well were punched into individual borosilicate tubes and bound radioactivity determined in a gamma counter. Protein content was determined on an aliquot of the mouse intestine membranes used in the Biorad Protein Assay.

Experiment [1] is described as follows: Mouse intestinal secretion assay (suckling mouse assay). In kind it is in vivo. Set-up: key to Mouse intestinal secretion assay (suckling mouse): 1+ (lowest activity/potency); ++: Results are graded from 1+ (lowest activity/potency) to 5+ (highest activity/potency); +++: Results are graded from 1+ (lowest activity/potency) to 5+ (highest activity/potency); ++++: Results are graded from 1+ (lowest activity/potency) to 5+ (highest activity/potency); +++++: 5+ (highest activity/potency). To be noted: for Mouse intestinal secretion assay (suckling mouse): graded activity/potency. The protocol:
A relevant disease model is the suckling mouse model in which STa (5-18) is deposited into the stomach of 3-4 day old mice, and the accumulation of fluid in their intestines is determined gravimetrically (Parkinson et al., 1994). All GCC peptides were formulated to the desired concentration in Dulbecco's PBS (1×, No Ca++, no Mg++) containing […] immediately prior to dosing. Proteinase inhibitors were prepared as stock solutions in PBS and added to dosing solutions by serial dilution, as needed. The dosing solution (50 μL) was delivered into the stomachs of 2-4 day old mice (3 per dosing group) using a plastic tube attached to the needle of a 1 mL tuberculin syringe. After 3 hours, the animals were sacrificed and dissected to determine the individual weights of the intestines and the rest of the carcass, respectively.

On to `C[C@@H]1NC(=O)[C@@H]2CCCN2C(=O)[C@H](CC(N)=O)NC(=O)[C@@H]2CSSC[C@H](N)C(=O)N[C@H]3CSSC[C@H](NC1=O)C(=O)N[C@@H]([C@@H](C)O)C(=O)NCC(=O)N[C@H](C(=O)N[C@@H](Cc1ccc(O)cc1)C(=O)O)CSSC[C@H](NC(=O)[C@H](Cc1ccc(O)cc1)NC(=O)[C@H](CCC(=O)O)NC3=O)C(=O)N2` [Linaclotide, H2N Cys Cys Glu Tyr Cys Cys Asn Pro Ala Cys Thr Gly Cys Tyr COOH] (HELM PEPTIDE1{C.C.E.Y.C.C.N.P.A.C.T.G.C.Y}$PEPTIDE1,PEPTIDE1,1:R3-6:R3|PEPTIDE1,PEPTIDE1,2:R3-10:R3|PEPTIDE1,PEPTIDE1,5:R3-13:R3$$$V2.0), for which, at GC-C, the I-125 binding assay result is reported as “+++”. In experiment [1] (FIG. 26, compared to STa), the “activity in the mouse intestinal secretion assay” value is given as “lower activity”. In addition, the “Mouse intestinal secretion assay (suckling mouse)” value in experiment [1] is reported as “+++”.
With “H2N Asn Thr Phe Tyr Cys Cys Glu Leu Cys Cys Asn Pro Ala Cys Ala Gly Cys Tyr COOH [STa(1-18)]”, the I-125 binding assay entry at GC-C is on record as “+++”. In experiment [1], the “Mouse intestinal secretion assay (suckling mouse)” value is listed as “++++”.
